Experimental data from patent publication US20140031217A1, “HERBICIDAL COMPOSITIONS COMPRISING 4-AMINO-3-CHLORO-5-FLUORO-6-(4-CHLORO-2-FLUORO-3-METHOXYPHENYL)PYRIDINE-2-CARBOXYLIC ACID OR A DERIVATIVE THEREOF AND AUXIN TRANSPORT INHIBITORS” (DOW AGROSCIENCES LLC, priority 2012, published 2014).

Experiments:
[1] = test system: BRAPP; experiment: Postemergence foliar-applied greenhouse weed control, BRAPP; format: in vivo, Brachiaria platyphylla (Griseb.) Nash
Excerpt: (§1) Seeds or nutlets of the desired test plant species were planted in a soil matrix prepared by mixing a loam or sandy loam soil (e.g., 28.6 percent silt, 18.8 percent clay, and 52.6 percent sand, with a pH of about 5.8 and an organic matter content of about 1.8 percent) and calcareous grit in an 80 to 20 ratio. The soil matrix was contained in plastic pots with a volume of 1 quart and a surface area of 83.6 square centimeters (cm^2). When required to ensure good germination and healthy plants, a fungicide treatment and/or other chemical or physical treatment was applied. The plants were grown for 8-22 days in a greenhouse with an approximate 14 h photoperiod which was maintained at about 29° C. during the day and 26° C. during the night. Nutrients (Peters Excel® 15-5-15 5-Ca 2-Mg and iron chelate) were applied in the irrigation solution as needed and water was added on a regular basis. Supplemental lighting was provided with overhead metal halide 1000-Watt lamps as necessary. The plants were employed for testing when they reached the first through fourth true leaf stage.
(§2) Treatments consisted of the acid or esters of 4-amino-3-chloro-5-fluoro-6-(4-chloro-2-fluoro-3-methoxy-phenyl) pyridine-2-carboxylic acid (Compound A), each formulated as an SC (suspension concentrate), and various herbicidal components alone and in combination. Forms of compound A were applied on an acid equivalent basis.
(§3) Other herbicidal components were applied on an active ingredient basis and included auxin transport inhibiting (ATI) herbicides chlorflurenol (technical material), chlorflurenol-methyl (technical material), diflufenzopyr (technical material), diflufenzopyr sodium (technical material), flurenol-methyl (technical material) and naptalam (technical material).
(§4) Treatment requirements were calculated based upon the rates being tested, the concentration of active ingredient or acid equivalent in the formulation, and a 12 mL application volume at a rate of 187 L/ha.
(§5) For treatments comprised of formulated and technical compounds, weighed amounts of the technical materials were placed individually in 25 mL glass vials and dissolved in a volume of 97:3 v/v acetone/DMSO to obtain 12× stock solutions, and measured amounts of the formulated compounds were placed individually in 25 mL glass vials and diluted in a volume of 1.5% (v/v) crop oil concentrate or water to obtain 12× stock solutions. […] Application solutions were prepared by adding an appropriate amount of each stock solution (e.g., 1 mL) and diluted to the appropriate final concentrations with the addition of an appropriate amount of an aqueous mixture of 1.5% (v/v) crop oil concentrate so that the final spray solutions contained 1.25% (v/v) crop oil concentrate. When required, additional water and/or 97:3 v/v acetone/DMSO was added to individual application solutions so that the final acetone and DMSO concentrations of the application solutions being compared were 8.1% and 0.25%, respectively.
(§6) All stock solutions and applications solutions were visually inspected for compound compatibility prior to application. Spray solutions were applied to the plant material with an overhead Mandel track sprayer equipped with an 8002E nozzle calibrated to deliver 187 L/ha over an application area of 0.503 m^2 at a spray height of 18 to 20 inches (46 to 50 cm) above average plant canopy height. Control plants were sprayed in the same manner with the solvent blank.
(§7) The treated plants and control plants were placed in a greenhouse as described above and watered by sub-irrigation to prevent wash-off of the test compounds. After approximately 3 weeks, the condition of the test plants as compared with that of the untreated plants was determined visually and scored on a scale of 0 to 100 percent where 0 corresponds to no injury or growth inhibition and 100 corresponds to complete kill. […]

[2] = test system: IPOHE; experiment: Postemergence foliar-applied greenhouse weed control, IPOHE; format: in vivo, Ipomoea hederacea Jacq.
Excerpt: as §1, §2, §3, §4, §5, §6, §7

Row | SMILES | Visual Weed Control (%) Obs ([1]; 21 DAA, 8.75 gae/ha) [%] | Visual Weed Control (%) Obs ([2]; 20 DAA, 4.38 gae/ha) [%] | Visual Weed Control (%) Obs ([2]; 20 DAA, 8.75 gae/ha) [%] | Visual Weed Control (%) Obs ([2]; 20 DAA, 17.5 gae/ha) [%] | Visual Weed Control (%) Obs ([1]; 21 DAA, 4.38 gae/ha) [%] | Visual Weed Control (%) Obs ([1]; 21 DAA, 17.5 gae/ha) [%] | Visual Weed Control (%) Obs ([1]; 22 DAA, 8 gae/ha) [%] | Visual Weed Control (%) Obs ([1]; 22 DAA, 16 gae/ha) [%] | Visual Weed Control (%) Obs ([2]; 21 DAA, 4.38 gae/ha) [%] | Visual Weed Control (%) Obs ([2]; 21 DAA, 8.75 gae/ha) [%] | Visual Weed Control (%) Obs ([2]; 21 DAA, 17.5 gae/ha) [%] | Visual Weed Control (%) Obs ([2]; 22 DAA, 8 gae/ha) [%] | Visual Weed Control (%) Obs ([2]; 22 DAA, 16 gae/ha) [%] | Visual Weed Control (%) Obs ([2]; 22 DAA, 32 gae/ha) [%]
1 | COc1c(Cl)ccc(-c2nc(C(=O)O)c(Cl)c(N)c2F)c1F [Compound A Acid, 4-amino-3-chloro-6-(4-chloro-2-fluoro-3-methoxyphenyl)-5-fluoropyridine-2-carboxylic acid] | 60 | 20 | 20 | 50 |  |  |  |  |  |  |  |  |  | 
2 | COc1c(Cl)ccc(-c2nc(C(=O)OCc3ccccc3)c(Cl)c(N)c2F)c1F [Compound A Benzyl Ester] | 75 | 10 | 15 |  | 70 | 95 | 35 | 80 | 10 | 10 | 25 | 0 | 25 | 50
